Read-outs that look alike come from different tables or passages of the source.
Key:
[1] = target: T1, p38 MAPK alpha (MAPK14) (Homo sapiens, UniProt Q16539); test: Enzyme inhibition assay, p38 MAPK alpha (FRET, Z-LYTE, via MAPKAP-K2); type: biochemical; details: read-out: Enzyme p38α IC50
T1 construct: purchased Invitrogen

[2] = test system: THP-1 cells; test: LPS-induced TNF alpha release in THP-1 cells; type: cell-based; details: Homo sapiens
Method: LPS-Induced TNF Alpha Release in THP-1 Cells: Potency […] Coli; O111:B4, Sigma) for 4 hr and the supernatant collected for determination of TNFα concentration by sandwich ELISA (Duo-set, R&D systems). The inhibition of TNFα production was calculated at each concentration by comparison with vehicle control.

[3] = test system: U937 cells; test: LPS-induced TNF alpha release in U937 cells; type: cell-based
Method: (§1) LPS-Induced TNF Alpha/IL-8 Release in U937 Cells: Potency U937 cells, human monocytic cell line, were differentiated to macrophage-type cells by incubation with phorbol myristate acetate (PMA; 100 ng/ml) for 48 to 72 hours. Cells were pre-incubated with final concentrations of compound for 2 hrs. […] Coli: O111:B4, Sigma) for 4 hrs, and the supernatant collected for determination of TNFα and IL-8 concentration by sandwich ELISA (Duo-set, R&D systems). […] The inhibition of IL-8 production was calculated at each concentration of test compound by comparison with vehicle control.

[4] = test system: U937 cells; test: LPS-induced IL-8 release in U937 cells; type: cell-based; details: Homo sapiens, read-out: DU937 (LPS) IL-8 IC50
Method: as §1

[5] = test system: BEAS2B cells; test: Poly I:C-induced ICAM-1 induction in BEAS2B cells; type: cell-based; details: Homo sapiens, BEAS-2B, read-out: BEAS2B (polyIC) ICAM1 IC50
Method: Poly I:C-Induced ICAM-1 Induction in BEAS2B Cells: Potency Poly I:C (1 ug/ml) (Invivogen Ltd., San Diego, Calif.) was transfected into BEAS2B cells (human bronchial epithelial cells, ATCC) with Oligofectamine (Invitrogen, Carlsbad, Calif.). Cells were pre-incubated with final concentrations of compound for 2 hrs. The level of ICAM1 expression on the cell surface was determined by cell-based ELISA. Briefly, at 18 hrs after poly I:C transfection, cells were fixed with 4% formaldehyde in PBS. After quenching endogenous peroxidase by adding 0.1% sodium azide and 1% hydrogen peroxide, cells were washed with wash-buffer (0.1% Tween in PBS: PBS-Tween). After blocking the wells with 5% milk in PBS-Tween for 1 hr, the cells were incubated with anti-human ICAM-1 antibody (Cell Signaling Technology, Danvers, Mass.) in 1% BSA PBS overnight at 4° C. Cells were washed with PBS-Tween and incubated with the secondary antibody (HRP-conjugated anti-rabbit IgG, Dako Ltd., Glostrup, Denmark). The ICAM-1 signal was detected by adding substrate and reading at 450 nm with a reference wavelength of 655 nm using a spectrophotometer. […] The measured OD 450-655 readings were corrected for cell number by dividing with the OD595 reading in each well.

[6] = test system: Differentiated U937 cells; test: MTT assay (cell viability); type: cell-based, human
Method: MTT Assay Differentiated U937 cells were pre-incubated with compound for 4 hrs in 5% FCS or 10% FCS for 24 hrs. […] After 1 hr incubation, the media were removed, 200 ul of DMSO added to each well and the plates were shaken lightly for 1 h prior to reading the absorbance at 550 nm. The percentage loss of cell viability was calculated for each well relative to vehicle (0.5% DMSO)-treatment. Consequently an apparent increase in cell viability for drug treatment relative to vehicle is tabulated as a negative percentage.

[7] = THP-1, Table 2, read-out: THP-1 (LPS) TNFα IC50
[8] = Homo sapiens; read-out: DU937 (LPS) TNFα REC50
[9] = Table 2, loss of cell viability at 1 μg/ml
[10] = THP-1, Table 3, read-out: THP-1 (LPS) TNFα IC50
[11] = Table 3, first MTT column, loss of cell viability, test conducted at 10 μg/ml
[12] = Table 3, second MTT column, loss of cell viability, test conducted at 10 μg/ml
[13] = Table 3, first MTT column, loss of cell viability at 1 μg/ml
[14] = Table 3, second MTT column, loss of cell viability at 1 μg/ml

T1 sequence (Q16539 whole entry): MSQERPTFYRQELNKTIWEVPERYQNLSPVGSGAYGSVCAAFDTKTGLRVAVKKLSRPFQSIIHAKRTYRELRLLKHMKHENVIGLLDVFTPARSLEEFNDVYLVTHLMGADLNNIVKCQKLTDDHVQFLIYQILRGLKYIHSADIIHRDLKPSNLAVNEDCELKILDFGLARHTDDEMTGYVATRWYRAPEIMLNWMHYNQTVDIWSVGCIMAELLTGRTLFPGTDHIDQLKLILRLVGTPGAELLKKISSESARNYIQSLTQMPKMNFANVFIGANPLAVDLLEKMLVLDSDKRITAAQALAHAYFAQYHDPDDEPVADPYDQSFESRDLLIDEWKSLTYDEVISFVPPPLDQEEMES

Structure (SMILES) | IC50 ([1]; Table 2) | IC50 [2, 7] | EC50 [3, 8] | IC50 ([4]; Table 2) | IC50 ([5]; Table 2) | DU937 (cell viability) MTT assay 4 h [6, 9] | DU937 (cell viability) MTT assay 24 h [6, 9] | IC50 ([2]; THP-1, read-out: THP-1 (LPS) TNFα IC50) | EC50 ([3]; Homo sapiens, read-out: DU937 (LPS) TNFα REC50) | IC50 [4] | IC50 [5] | IC50 ([1]; Table 3) | IC50 [2, 10] | IC50 ([4]; Table 3) | IC50 ([5]; Table 3) | DU937 (cell viability) MTT assay 4 h [6, 11] | DU937 (cell viability) MTT assay 4 h [6, 12] | DU937 (cell viability) MTT assay 4 h [6, 13] | DU937 (cell viability) MTT assay 4 h [6, 14]
Cc1ccc(-n2nc(C(C)(C)C)cc2NC(=O)Nc2ccc(Oc3ccnc(NC(=O)CNC(=O)C4CCOCC4)c3)c3ccccc23)cc1 [Example 16, N-(2-(4-(4-(3-(3-tert-Butyl-1-p-tolyl-1H-pyrazol-5-yl)ureido)naphthalen-1-yloxy)pyridin-2-ylamino)-2-oxoethyl)tetrahydro-2H-pyran-4-carboxamide] | < 10 nM | < 10 nM | < 10 nM | < 10 nM | < 10 nM | − (<=30%) | + (>30%) | – | – | – | – | – | – | – | – | – | – | – | –
Cc1ccc(-n2nc(C(C)(C)C)cc2NC(=O)Nc2ccc(Oc3ccnc(NC(=O)CNC(=O)c4ccncc4)c3)c3ccccc23)cc1 [Example 17, N-(2-(4-(4-(3-(3-tert-Butyl-1-p-tolyl-1H-pyrazol-5-yl)ureido)naphthalen-1-yloxy)pyridin-2-ylamino)-2-oxoethyl)isonicotinamide] | < 10 nM | – | – | – | – | − (<=30%) | + (>30%) | < 10 nM | < 10 nM | < 10 nM | < 10 nM | – | – | – | – | – | – | – | –
Cc1ccc(-n2nc(C(C)(C)C)cc2NC(=O)Nc2ccc(Oc3ccnc(NC(=O)CNC(=O)CCN4CCOCC4)c3)c3ccccc23)cc1 [Example 19, N-(2-(4-(4-(3-(3-tert-Butyl-1-p-tolyl-1H-pyrazol-5-yl)ureido)naphthalen-1-yloxy)pyridin-2-ylamino)-2-oxoethyl)-3-morpholinopropanamide] | < 10 nM | < 10 nM | < 10 nM | < 10 nM | < 10 nM | − (<=30%) | + (>30%) | – | – | – | – | – | – | – | – | – | – | – | –
Cc1ccc(-n2nc(C(C)(C)C)cc2NC(=O)Nc2ccc(Oc3ccnc(NC(=O)CNC(=O)N4CCOCC4)c3)c3ccccc23)cc1 [Example 20, N-(2-(4-(4-(3-(3-tert-Butyl-1-p-tolyl-1H-pyrazol-5-yl)ureido)naphthalen-1-yloxy)pyridin-2-ylamino)-2-oxoethyl)morpholine-4-carboxamide] | < 10 nM | < 10 nM | < 10 nM | < 5000 nM | < 5000 nM | − (<=30%) | − (<=30%) | – | – | – | – | – | – | – | – | – | – | – | –
COCC(=O)Nc1cc(Oc2ccc(NC(=O)Nc3cc(C(C)(C)C)nn3-c3ccc(C)cc3)cc2)ccn1 [Example 22, N-(4-(4-(3-(3-tert-Butyl-1-p-tolyl-1H-pyrazol-5-yl)ureido)phenoxy)pyridin-2-yl)-2-methoxyacetamide] | < 5000 nM | < 10 nM | < 10 nM | < 10 nM | < 5000 nM | − (<=30%) | + (>30%) | – | – | – | – | – | – | – | – | – | – | – | –
COCC(=O)Nc1cc(Oc2ccc(NC(=O)Nc3cc(C(C)(C)C)nn3-c3ccc(C)cc3)cc2C)ccn1 [Example 23, N-(4-(4-(3-(3-tert-Butyl-1-p-tolyl-1H-pyrazol-5-yl)ureido)-2-methylphenoxy)pyridin-2-yl)-2-methoxyacetamide] | < 5000 nM | < 10 nM | < 10 nM | < 10 nM | < 5000 nM | − (<=30%) | − (<=30%) | – | – | – | – | – | – | – | – | – | – | – | –
COCC(=O)Nc1cc(Oc2ccc(NC(=O)Nc3cc(C(C)(C)C)nn3-c3ccc(C)cc3)c(C)c2C)ccn1 [Example 26, N-(4-(4-(3-(3-tert-Butyl-1-p-tolyl-1H-pyrazol-5-yl)ureido)-2,3-dimethylphenoxy)pyridin-2-yl)-2-methoxyacetamide] | < 5000 nM | < 10 nM | < 10 nM | < 10 nM | < 10 nM | − (<=30%) | + (>30%) | – | – | – | – | – | – | – | – | – | – | – | –
CCNC(=O)Nc1cc(Oc2ccc(NC(=O)Nc3cc(C(C)(C)C)nn3-c3ccc(C)cc3)c3ccccc23)ccn1 [Example 28, N-Ethyl-N′-4-(4-(3-(3-tert-butyl-1-p-tolyl-1H-pyrazol-5-yl)ureido)naphthalen-1-yloxy)pyridin-2-ylurea] | – | – | < 5000 nM | – | – | – | – | – | – | – | – | < 5000 nM | < 10 nM | < 5000 nM | < 5000 nM | −^$ (<=30%) | −^$ (<=30%) | – | –
Cc1ccc(-n2nc(C(C)(C)C)cc2NC(=O)Nc2ccc(Oc3ccnc(NC(N)=O)c3)c3ccccc23)cc1 [Example 29, 4-(4-(3-(3-tert-Butyl-1-p-tolyl-1H-pyrazol-5-yl)ureido)naphthalen-1-yloxy)pyridin-2-yl urea] | – | – | < 10 nM | – | – | – | – | – | – | – | – | < 10 nM | < 10 nM | < 5000 nM | < 10 nM | – | – | − (<=30%) | − (<=30%)
COCCNC(=O)Nc1cc(Oc2ccc(NC(=O)Nc3cc(C(C)(C)C)nn3-c3ccc(C)cc3)c3ccccc23)ccn1 [Example 34, 1-(3-(tert-Butyl)-1-(p-tolyl)-1H-pyrazol-5-yl)-3-(4-((2-(3-(2-methoxyethyl)ureido)pyridin-4-yl)oxy)naphthalen-1-yl)urea] | – | – | < 5000 nM | – | – | – | – | – | – | – | – | < 5000 nM | < 10 nM | < 5000 nM | < 5000 nM | −^ ^$ (<=30%) | +^$ (>30%) | – | –
CNC(=O)Nc1cc(Oc2ccc(NC(=O)Nc3cc(C(C)(C)C)nn3-c3ccc(C)cc3)c3ccccc23)ccn1 [Example 36] | – | – | < 10 nM | – | – | – | – | – | – | – | – | < 5000 nM | < 10 nM | < 5000 nM | < 10 nM | – | – | − (<=30%) | − (<=30%)
CC(=O)N1CCC(NC(=O)Nc2cc(Oc3ccc(NC(=O)Nc4cc(C(C)(C)C)nn4-c4ccc(C)cc4)c4ccccc34)ccn2)CC1 [Example 39, N-Acetyl 4-(3-(4-(4-(3-(3-tert-butyl-1-p-tolyl-1H-pyrazol-5-yl)ureido)naphthalen-1-yloxy)pyridin-2-yl)ureido)piperidine] | – | – | < 10 nM | – | – | – | – | – | – | – | – | < 10 nM | < 10 nM | < 10 nM | < 5000 nM | – | – | − (<=30%) | + (>30%)
Cc1ccc(-n2nc(C(C)(C)C)cc2NC(=O)Nc2ccc(Oc3ccnc(NC(=O)N4CCN(C)CC4)c3)c3ccccc23)cc1 [Example 43, N-(4-((4-(3-(3-(tert-Butyl)-1-(p-tolyl)-1H-pyrazol-5-yl)ureido)naphthalen-1-yl)oxy)pyridin-2-yl)-4-methylpiperazine-1-carboxamide] | – | – | < 10 nM | – | – | – | – | – | – | – | – | < 10 nM | < 10 nM | < 10 nM | < 10 nM | – | – | − (<=30%) | − (<=30%)

Source: US8299074B2, “P38 MAP kinase inhibitors” (RespiVert Ltd., priority 2008, dated 2012)
